{"source": "patent EP0405506A1", "about": "“Tetrapeptide type-B CCK receptor ligands” (ABBOTT LABORATORIES, priority 1989, dated 1991)", "tested_on": "VTA neurons", "assay": "Potentiation of ethanol-induced excitation of VTA neurons in rat brain slices (extracellular recording)", "format": "cell-based, Sprague-Dawley rats", "conditions": "ethanol 80 to 160 mM, agonist infused at least 10 minutes before ethanol", "procedure": "Brain slices form Sprague-Dawley rats (100-200 gm) containing the ventral tegmental area were prepared as previously described (Brodie and Dunwiddie, Brain Research, 425, 106 (1987)). Animals used in this study were treated in strict accordance with the NIH Guide for the Care and use of Laboratory Animals. Coronal sections (400 um thick) were cut and the tissue was place directly in the recording chamber. Small platinum weights were placed on the slice to increase the stability of recordings. The slice was covered with medium and a superfusion system then maintained the flow of medium at 2 ml/min; the temperature in the recording chamber was kept at 35°C. […] The flow rate was continuously monitored with a flowmeter and adjustable valves were used to keep the rate constant. […]\nEthanol and the CCK agonist compound were added to the aCSF in the fluid delivery tubing by means of a calibrated infusion pump from stock solutions 100 to 1000 times the desired final concentrations. Final concentrations were calculated from aCSF flow rate, pump infusion rate and concentration of drug stock solution. […]\nFrequency of firing was determined using a window discriminator and ratemeter, the output of which was fed to a chart recorder. […]", "data": [{"molecule": "CCC[C@H]1CCN(C(=O)[C@@H]2Cc3c[nH]c4cccc(c34)CC(=O)N2)[C@@H]1C(=O)N[C@@H](CC(=O)O)C(=O)N[C@@H](Cc1ccccc1)C(N)=O", "note": "[Example 48, Ctp-Tpp-Asp-Phe-NH₂]", "values": [{"measurement": "effect on excitatory effect of ethanol on VTA neurons (firing rate)", "result": "increases the excitatory effect of ethanol on VTA neurons"}]}]}
